Data as given in ChEMBL document CHEMBL1201862, “PubChem BioAssay data set” (2004).
The source made the active and inactive calls.

How the values were obtained:
[1] = tested on: Streptococcus sp. 'group A'; test: growth inhibition of control SK(-) GAS strain, dose response, counter-screen for streptokinase expression inhibitor project, luminescence, kanamycin, BacTiterGlo, confirmation (AID 1900); format: functional, organism-based
Streptococcus = test: Group A Streptococcus viability loss, dose response, counter-screen for streptokinase expression inhibitor project, luminescence, BacTiterGlo (AID 1915); format: functional, organism-based;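 note: potency for reduction of bacterial viability or growth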
[2] = THP-1 cell cytotoxicity, dose response, cytotoxicity control for Vif-APOBEC3G degradation inhibitor project, THP-1 cells (AID 1117359); format: functional; details: Human immunodeficiency virus 1, THP-1
[3] = LGR2 antagonists, dose response, cell-based, HEK293, CRE-luciferase reporter, cherry pick, set 2 (AID 743343); format: functional;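 note: transfected cells were stimulated with diluted bursicon conditioned medium after compound addition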
Cytochrome P450 3A4 = Cytochrome P450 3A4 (Homo sapiens, UniProt P08684);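 note: CYP3A4 tested as one member of a cytochrome P450 panel screen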
[4] = target: Glyceraldehyde-3-phosphate dehydrogenase (Homo sapiens, UniProt P04406)
[5] = target: T1, Alkaline phosphatase, tissue-nonspecific isozyme (Homo sapiens, UniProt P05186); test: human TNAP enzyme inhibitors, SAR follow-up, biochemical, luminescent, dose response (AID 1056)
T1 sequence (P05186 whole entry): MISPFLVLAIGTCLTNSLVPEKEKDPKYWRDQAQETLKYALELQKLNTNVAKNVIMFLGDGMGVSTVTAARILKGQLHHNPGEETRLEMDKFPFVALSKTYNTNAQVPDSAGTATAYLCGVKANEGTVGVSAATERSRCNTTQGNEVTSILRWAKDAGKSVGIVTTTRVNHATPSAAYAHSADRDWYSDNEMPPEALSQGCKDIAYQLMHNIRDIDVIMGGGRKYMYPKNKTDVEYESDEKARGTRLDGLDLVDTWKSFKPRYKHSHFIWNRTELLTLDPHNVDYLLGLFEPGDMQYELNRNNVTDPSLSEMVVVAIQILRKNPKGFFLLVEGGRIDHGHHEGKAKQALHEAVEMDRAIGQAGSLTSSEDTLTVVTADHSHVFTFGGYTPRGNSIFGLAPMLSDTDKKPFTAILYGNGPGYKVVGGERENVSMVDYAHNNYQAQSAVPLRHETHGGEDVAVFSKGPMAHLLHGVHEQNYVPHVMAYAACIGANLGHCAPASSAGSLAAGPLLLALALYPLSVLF

[6] = target: Induced myeloid leukemia cell differentiation protein Mcl-1 (Homo sapiens, UniProt Q07820); format: functional
[7] = target: T2, Carboxy-terminal domain RNA polymerase II polypeptide A small phosphatase 1 (Homo sapiens, UniProt Q9GZU7); test: inhibitors of CTDSP1, concentration-response testing, biochemical assay, absorbance-based, actives from ultra-high-throughput screening (AID 540297); format: functional
T2 sequence (Q9GZU7 whole entry): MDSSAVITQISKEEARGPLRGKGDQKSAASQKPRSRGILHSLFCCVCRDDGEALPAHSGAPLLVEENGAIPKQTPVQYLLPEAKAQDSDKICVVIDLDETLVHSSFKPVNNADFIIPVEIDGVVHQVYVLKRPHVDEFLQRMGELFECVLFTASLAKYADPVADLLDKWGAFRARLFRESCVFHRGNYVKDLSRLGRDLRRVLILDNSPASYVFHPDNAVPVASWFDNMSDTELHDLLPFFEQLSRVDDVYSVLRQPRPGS

[8] = target: T3, Voltage-gated N-type calcium channel alpha-1B subunit/Amyloid beta A4 precursor protein-binding family A member 1 (Homo sapiens, UniProt Q00975+Q02410); format: protein assay
[9] = target: T3, Voltage-gated N-type calcium channel alpha-1B subunit/Amyloid beta A4 precursor protein-binding family A member 1; format: protein assay; remark: listed apart in the source
[10] = target: T4, Short transient receptor potential channel 4 (Mus musculus, UniProt Q9QUQ5); test: mouse TRPC4 channel activators, dose response, cell-based, HEK293 TRPC4/mu-opioid, Fluo-4 calcium (AID 434937); format: functional
T4 sequence (Q9QUQ5 whole entry): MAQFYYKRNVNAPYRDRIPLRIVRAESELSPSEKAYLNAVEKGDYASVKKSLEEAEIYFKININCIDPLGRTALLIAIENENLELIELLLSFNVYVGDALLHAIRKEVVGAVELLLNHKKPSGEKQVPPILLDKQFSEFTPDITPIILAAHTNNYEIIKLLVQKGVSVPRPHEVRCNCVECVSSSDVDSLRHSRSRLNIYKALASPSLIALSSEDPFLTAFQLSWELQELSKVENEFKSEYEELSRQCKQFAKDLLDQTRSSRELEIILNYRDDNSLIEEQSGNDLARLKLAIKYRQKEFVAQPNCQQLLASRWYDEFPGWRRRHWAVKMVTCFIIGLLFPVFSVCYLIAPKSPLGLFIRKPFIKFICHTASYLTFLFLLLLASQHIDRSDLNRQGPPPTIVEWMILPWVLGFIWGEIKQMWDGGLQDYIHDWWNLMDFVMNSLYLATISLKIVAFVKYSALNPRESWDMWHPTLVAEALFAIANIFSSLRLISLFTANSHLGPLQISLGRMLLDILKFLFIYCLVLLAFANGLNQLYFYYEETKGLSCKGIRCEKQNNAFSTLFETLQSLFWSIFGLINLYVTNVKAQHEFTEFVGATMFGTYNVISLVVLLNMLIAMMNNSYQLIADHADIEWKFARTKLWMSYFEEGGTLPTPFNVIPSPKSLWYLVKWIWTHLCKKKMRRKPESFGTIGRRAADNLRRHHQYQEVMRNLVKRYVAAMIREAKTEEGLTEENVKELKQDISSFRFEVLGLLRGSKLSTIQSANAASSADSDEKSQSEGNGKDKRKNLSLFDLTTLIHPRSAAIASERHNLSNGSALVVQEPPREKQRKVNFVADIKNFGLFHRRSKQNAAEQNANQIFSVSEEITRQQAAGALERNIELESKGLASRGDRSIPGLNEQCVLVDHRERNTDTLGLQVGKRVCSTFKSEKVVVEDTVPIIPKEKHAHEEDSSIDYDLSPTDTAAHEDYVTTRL

[11] = target: T5, High affinity choline transporter 1 (Homo sapiens, UniProt Q9GZV3); test: CHT inhibitors, dose response, cell-based, 5-point CRC, membrane potential dye (AID 504840); format: functional
T5 sequence (Q9GZV3 whole entry): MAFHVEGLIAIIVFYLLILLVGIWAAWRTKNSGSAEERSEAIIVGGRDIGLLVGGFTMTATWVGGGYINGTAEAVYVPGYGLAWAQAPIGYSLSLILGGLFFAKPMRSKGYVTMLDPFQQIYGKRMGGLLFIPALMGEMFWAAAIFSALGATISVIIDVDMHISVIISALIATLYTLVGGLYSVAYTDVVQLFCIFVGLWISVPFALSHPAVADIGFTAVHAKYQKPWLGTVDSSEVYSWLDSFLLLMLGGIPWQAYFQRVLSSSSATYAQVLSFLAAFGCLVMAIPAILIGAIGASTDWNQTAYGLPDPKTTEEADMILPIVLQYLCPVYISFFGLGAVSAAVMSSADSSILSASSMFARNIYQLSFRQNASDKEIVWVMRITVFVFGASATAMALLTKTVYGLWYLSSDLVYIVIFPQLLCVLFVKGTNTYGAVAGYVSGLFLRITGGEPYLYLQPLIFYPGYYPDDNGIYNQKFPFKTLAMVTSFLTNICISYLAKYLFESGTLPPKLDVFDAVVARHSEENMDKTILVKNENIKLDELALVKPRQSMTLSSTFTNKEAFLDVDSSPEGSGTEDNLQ

Cytochrome P450 1A2 = target: T6, Cytochrome P450 1A2 (Homo sapiens, UniProt P05177);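 note: PubChem cytochrome P450 panel assay, CYP1A2 panel member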
T6 sequence (P05177 whole entry): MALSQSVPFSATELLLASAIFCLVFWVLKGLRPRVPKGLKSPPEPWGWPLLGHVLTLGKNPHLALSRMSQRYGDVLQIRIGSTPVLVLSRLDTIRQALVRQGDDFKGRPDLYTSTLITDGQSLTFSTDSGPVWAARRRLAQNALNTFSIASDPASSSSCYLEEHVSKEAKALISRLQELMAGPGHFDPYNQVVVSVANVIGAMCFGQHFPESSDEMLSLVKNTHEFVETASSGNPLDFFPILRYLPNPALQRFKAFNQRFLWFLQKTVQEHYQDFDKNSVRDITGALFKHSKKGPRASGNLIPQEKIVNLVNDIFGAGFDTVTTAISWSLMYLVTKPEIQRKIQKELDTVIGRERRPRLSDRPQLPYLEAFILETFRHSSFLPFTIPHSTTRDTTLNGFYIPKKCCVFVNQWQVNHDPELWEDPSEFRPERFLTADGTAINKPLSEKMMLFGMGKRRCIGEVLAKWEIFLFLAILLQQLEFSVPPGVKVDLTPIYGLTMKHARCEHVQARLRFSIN

Paired box protein Pax-8 = Paired box protein Pax-8 (Homo sapiens, UniProt Q06710); test: inhibitors of PAX8-driven TPO luciferase reporter, dose response, RMG-I cells, cherry-pick (AID 687027); format: functional, cell-based;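 note: luciferase reporter driven by Pax8 target thyroperoxidase promoter measured by SteadyGlo luminescence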
[12] = cytotoxicity in OVCAR8 ovarian cancer cells, dose response, PAX8 project, cell-based, plate reader, dry powder samples (AID 743197); format: functional; details: OVCAR-8
[13] = NIH:OVCAR-3 ovarian cancer cell cytotoxicity, dose response, PAX8 inhibitor project, plate reader, dry powder samples (AID 743044); format: functional, cell-based
Cytochrome P450 2D6 = Cytochrome P450 2D6 (Homo sapiens, UniProt P10635);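 note: CYP2D6 member of a cytochrome P450 panel assay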
[14] = target: T7, Heat shock factor protein 1 (Mus musculus, UniProt P38532); test: inhibition of MG132-induced HSE-luciferase signal, confirmation, cell-based, NIH3T3, luminescence, dose retest (AID 2382); format: functional;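 note: NIH3T3 fibroblasts with HSF1-driven luciferase reporter stressed by proteasome inhibitor MG132; luminescence from HSF1-driven luciferase expression after 8 hours of MG132 stress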
T7 sequence (P38532 whole entry): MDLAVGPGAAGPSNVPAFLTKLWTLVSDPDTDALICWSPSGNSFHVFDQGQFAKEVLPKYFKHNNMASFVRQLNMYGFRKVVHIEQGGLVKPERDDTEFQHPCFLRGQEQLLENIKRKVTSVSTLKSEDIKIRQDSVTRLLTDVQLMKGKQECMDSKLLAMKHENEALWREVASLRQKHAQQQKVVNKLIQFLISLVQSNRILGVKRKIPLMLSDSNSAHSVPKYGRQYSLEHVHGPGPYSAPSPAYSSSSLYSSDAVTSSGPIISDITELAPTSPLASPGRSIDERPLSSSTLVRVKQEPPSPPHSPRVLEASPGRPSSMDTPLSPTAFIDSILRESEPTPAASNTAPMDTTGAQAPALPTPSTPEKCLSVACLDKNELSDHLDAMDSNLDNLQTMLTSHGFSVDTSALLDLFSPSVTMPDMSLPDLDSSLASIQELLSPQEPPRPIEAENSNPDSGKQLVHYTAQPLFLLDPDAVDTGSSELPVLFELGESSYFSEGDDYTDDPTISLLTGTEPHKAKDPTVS

Cytochrome P450 2C19 = Cytochrome P450 2C19 (Homo sapiens, UniProt P33261); test: Cytochrome panel assay with activity outcomes. Panel member name: p450-cyp2c19 Compounds with AC50 equal or less than 10 uM are considered active; format: functional; details: read-out: AC50
Cytochrome P450 2C9 = Cytochrome P450 2C9 (Homo sapiens, UniProt P11712)

Chain of Cytochrome P450 3A4 (P08684 whole entry): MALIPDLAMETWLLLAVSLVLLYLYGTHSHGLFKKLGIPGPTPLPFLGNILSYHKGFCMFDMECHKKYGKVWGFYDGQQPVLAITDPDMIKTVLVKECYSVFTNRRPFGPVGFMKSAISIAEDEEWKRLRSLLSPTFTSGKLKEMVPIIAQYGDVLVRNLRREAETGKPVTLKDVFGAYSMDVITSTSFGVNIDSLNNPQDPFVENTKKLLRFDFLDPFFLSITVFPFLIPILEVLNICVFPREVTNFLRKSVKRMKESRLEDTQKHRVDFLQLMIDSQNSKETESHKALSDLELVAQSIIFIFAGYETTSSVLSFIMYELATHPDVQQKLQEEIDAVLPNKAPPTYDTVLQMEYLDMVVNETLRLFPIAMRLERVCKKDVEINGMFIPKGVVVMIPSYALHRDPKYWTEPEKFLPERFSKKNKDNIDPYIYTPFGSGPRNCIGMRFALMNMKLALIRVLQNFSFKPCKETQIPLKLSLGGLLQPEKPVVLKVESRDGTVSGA
Chain of Glyceraldehyde-3-phosphate dehydrogenase (P04406 whole entry): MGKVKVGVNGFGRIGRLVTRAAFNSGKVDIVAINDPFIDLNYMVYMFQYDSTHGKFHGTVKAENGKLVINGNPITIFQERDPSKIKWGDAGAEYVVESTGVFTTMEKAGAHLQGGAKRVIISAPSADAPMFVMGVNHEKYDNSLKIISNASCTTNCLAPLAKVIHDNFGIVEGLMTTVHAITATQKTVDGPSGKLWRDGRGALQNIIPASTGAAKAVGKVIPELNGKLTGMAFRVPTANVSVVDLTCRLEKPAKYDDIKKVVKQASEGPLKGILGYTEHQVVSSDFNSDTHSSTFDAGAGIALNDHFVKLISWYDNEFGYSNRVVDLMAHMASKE
T3 sequence (Q00975 whole entry): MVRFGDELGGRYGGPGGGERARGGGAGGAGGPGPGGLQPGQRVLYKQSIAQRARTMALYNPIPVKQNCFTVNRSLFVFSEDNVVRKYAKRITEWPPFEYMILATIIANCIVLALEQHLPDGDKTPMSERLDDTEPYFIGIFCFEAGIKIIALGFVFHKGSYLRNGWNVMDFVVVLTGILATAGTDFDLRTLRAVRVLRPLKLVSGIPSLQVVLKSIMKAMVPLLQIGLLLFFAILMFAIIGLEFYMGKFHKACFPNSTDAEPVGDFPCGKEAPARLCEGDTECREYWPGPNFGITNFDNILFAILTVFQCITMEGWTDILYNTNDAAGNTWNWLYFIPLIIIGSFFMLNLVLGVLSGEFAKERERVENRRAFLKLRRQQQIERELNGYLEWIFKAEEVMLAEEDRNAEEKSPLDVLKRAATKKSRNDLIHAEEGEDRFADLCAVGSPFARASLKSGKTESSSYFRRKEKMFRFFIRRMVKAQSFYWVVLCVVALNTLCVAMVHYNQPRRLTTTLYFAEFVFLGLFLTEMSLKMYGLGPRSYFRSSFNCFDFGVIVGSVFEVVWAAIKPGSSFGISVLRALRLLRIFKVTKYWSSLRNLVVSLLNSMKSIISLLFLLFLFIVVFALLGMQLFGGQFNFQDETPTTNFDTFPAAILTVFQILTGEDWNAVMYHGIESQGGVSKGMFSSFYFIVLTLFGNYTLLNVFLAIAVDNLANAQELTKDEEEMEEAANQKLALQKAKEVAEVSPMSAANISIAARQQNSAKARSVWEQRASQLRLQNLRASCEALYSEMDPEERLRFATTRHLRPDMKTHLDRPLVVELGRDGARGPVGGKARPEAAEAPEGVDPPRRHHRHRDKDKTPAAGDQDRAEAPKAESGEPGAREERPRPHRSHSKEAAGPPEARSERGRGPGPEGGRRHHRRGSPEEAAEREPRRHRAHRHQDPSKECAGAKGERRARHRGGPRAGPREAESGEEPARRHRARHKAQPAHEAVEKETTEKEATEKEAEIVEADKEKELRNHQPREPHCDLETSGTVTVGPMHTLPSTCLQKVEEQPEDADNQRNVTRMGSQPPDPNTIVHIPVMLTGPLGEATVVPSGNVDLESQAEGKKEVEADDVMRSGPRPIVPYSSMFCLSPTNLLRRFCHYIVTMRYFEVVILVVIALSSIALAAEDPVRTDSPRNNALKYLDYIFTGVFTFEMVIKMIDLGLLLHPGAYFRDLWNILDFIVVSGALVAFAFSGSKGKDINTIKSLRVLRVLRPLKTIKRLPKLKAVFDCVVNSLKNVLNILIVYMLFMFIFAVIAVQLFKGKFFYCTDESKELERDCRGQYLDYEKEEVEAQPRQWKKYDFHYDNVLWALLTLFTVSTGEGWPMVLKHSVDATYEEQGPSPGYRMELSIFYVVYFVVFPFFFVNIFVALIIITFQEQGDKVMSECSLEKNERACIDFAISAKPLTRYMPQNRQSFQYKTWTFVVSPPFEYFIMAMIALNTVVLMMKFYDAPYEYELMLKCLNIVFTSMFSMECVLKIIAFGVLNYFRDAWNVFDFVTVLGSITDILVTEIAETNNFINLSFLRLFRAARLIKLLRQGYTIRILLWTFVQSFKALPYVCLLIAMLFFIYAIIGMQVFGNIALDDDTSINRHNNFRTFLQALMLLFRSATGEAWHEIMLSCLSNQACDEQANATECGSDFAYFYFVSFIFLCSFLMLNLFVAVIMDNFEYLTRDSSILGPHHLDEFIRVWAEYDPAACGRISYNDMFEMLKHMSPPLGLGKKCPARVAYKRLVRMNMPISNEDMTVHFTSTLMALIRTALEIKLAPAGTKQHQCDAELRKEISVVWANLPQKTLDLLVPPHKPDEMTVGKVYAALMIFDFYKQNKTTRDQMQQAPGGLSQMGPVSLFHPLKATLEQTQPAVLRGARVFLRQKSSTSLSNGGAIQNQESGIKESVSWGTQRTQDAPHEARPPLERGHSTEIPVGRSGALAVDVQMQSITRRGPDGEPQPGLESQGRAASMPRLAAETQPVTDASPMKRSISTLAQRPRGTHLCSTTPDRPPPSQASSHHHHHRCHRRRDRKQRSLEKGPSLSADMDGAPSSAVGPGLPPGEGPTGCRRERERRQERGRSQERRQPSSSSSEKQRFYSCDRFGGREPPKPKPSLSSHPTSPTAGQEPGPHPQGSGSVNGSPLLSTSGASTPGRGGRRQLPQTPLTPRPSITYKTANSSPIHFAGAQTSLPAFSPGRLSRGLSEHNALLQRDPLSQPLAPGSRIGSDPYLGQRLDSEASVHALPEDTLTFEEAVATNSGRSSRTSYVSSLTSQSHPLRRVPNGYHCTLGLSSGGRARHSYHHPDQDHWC
T3 sequence (Q02410 whole entry): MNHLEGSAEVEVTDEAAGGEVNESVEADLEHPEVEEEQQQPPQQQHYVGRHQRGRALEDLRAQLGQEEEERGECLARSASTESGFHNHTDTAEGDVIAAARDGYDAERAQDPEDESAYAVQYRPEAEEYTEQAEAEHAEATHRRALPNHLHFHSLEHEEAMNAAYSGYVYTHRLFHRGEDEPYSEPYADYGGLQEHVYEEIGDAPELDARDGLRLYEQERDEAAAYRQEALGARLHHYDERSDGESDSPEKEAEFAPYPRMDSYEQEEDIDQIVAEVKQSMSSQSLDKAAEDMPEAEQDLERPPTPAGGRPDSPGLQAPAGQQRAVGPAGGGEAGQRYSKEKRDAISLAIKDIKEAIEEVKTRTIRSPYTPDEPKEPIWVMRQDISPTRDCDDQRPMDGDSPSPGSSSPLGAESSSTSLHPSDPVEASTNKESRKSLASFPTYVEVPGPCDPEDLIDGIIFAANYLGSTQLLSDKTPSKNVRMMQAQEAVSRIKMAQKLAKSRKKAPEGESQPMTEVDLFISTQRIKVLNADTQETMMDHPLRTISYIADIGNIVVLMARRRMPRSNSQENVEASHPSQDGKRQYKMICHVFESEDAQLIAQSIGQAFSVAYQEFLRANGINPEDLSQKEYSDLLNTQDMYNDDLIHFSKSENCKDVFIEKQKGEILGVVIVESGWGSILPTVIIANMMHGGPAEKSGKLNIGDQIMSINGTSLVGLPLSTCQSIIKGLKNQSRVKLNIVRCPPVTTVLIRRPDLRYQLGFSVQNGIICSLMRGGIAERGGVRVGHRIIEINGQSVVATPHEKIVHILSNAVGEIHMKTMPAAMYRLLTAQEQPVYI
Chain of Cytochrome P450 2D6 (P10635 whole entry): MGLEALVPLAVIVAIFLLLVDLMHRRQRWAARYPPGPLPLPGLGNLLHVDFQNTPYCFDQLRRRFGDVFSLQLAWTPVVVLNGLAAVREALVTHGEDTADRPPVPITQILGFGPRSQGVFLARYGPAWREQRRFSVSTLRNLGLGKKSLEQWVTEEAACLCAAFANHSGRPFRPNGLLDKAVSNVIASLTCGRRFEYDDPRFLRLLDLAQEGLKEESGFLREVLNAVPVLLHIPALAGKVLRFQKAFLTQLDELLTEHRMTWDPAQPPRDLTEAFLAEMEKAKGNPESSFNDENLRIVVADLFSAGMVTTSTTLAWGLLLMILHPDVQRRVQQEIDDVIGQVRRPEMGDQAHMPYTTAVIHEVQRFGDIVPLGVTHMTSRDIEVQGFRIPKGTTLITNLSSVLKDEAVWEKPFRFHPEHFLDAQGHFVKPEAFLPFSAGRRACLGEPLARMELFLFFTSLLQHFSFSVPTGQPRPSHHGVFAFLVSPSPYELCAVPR
Chain of Paired box protein Pax-8 (Q06710 whole entry): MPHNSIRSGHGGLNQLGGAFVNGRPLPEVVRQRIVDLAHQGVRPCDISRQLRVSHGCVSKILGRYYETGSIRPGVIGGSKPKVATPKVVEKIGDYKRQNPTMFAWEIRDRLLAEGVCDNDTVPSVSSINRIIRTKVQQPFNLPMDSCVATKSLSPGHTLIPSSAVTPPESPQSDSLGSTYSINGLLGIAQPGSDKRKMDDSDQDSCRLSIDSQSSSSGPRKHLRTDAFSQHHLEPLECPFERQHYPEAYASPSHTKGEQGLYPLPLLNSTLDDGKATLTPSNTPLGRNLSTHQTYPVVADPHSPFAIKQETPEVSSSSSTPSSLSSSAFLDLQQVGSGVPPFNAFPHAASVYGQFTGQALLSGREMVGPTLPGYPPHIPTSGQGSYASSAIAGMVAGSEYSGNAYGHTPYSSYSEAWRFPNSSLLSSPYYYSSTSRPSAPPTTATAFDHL

SMILES: CCCN=C1C(=O)C2=C(C(O)=C1C)N1CC3NC3[C@@]1(OC)C2COC(N)=O (stereo partly drawn)
- EC50 [1]: < 0.06 µM (active)
- EC50 (Streptococcus): 0.153 µM (active)
- CC50 [2]: 1.52 µM (active)

SMILES: O=S1(=O)CCOC[C@H](CC2CCCCC2)N1Cc1ccccc1F
- AC50 [3]: 53.7 µM (active)

SMILES: CCN(CC)S(=O)(=O)c1ccc(C(=O)NC2=C(C(=O)OC)SCC2)cc1
- AC50 (Cytochrome P450 3A4): inconclusive

SMILES: CCOc1cc(C)c(C)cc1S(=O)(=O)Nc1cccnc1
- IC50 [4]: > 100 µM (not active)
- IC50 [5]: 1.7 µM (active)

SMILES: Cc1ccc(NC(=O)CN2C(=O)N/C(=C/c3cc(C)n(-c4ccc(C(=O)O)cc4)c3C)C2=O)cc1
- IC50 [6]: 4.55 µM (active)
- IC50 [7]: 7.93 µM (active)

SMILES: CC(=O)NC1=NC(=O)/C(=C/c2cn(C(C)=O)nc2-c2ccccc2)S1
- IC50 [8]: > 56.8 µM (not active)
- IC50 [9]: > 50 µM (inactive)

SMILES: COc1ccccc1C(=O)NNC(=S)NC(=O)c1sc2ccccc2c1Cl
- EC50 [1]: 0.072 µM (active)
- EC50 (Streptococcus): 0.878 µM (active)
- EC50 [10]: 5.31 µM (active)
- IC50 [11]: 14.5 µM (active)

SMILES: O=S(=O)(Nc1cccnc1)c1ccc(Br)cc1OC(F)(F)F
- IC50 [4]: > 100 µM (not active)
- IC50 [5]: 10.9 µM (active)

SMILES: Cc1ccccc1OCC(=O)Nc1ccc(N2CCN(C(=O)C(C)C)CC2)c(Cl)c1
- AC50 (Cytochrome P450 1A2): 15.8 µM (inconclusive)
- AC50 (Cytochrome P450 3A4): inconclusive

SMILES: O=C1C2CCCCC2C(=O)N1c1nccs1 (stereo not drawn)
- IC50 [4]: > 10 µM (inconclusive)
- IC50 [5]: > 10 µM (inactive)

SMILES: CCCC[C@@H]1CN=C(S)N1CCc1cccc2ccccc12
- CC50 [2]: > 40 µM (active)

SMILES: Cn1c(SCC(=O)Nc2nncs2)nnc1C1CC1
- IC50 [7]: 4.69 µM (active)

SMILES: CCCN1[C@H](C(=O)N2CCOCC2)[C@@H](CO)[C@@H]2Cn3c(ccc(/C=C/c4ccccc4)c3=O)[C@@H]21
- AC50 (Paired box protein Pax-8): 48.2 µM (active)
- AC50 [12]: > 70 µM (inactive)

SMILES: C[C@@H]1CN([C@H](C)CO)S(=O)(=O)c2ccc(-c3ccc(C#N)cc3)cc2O[C@@H]1CN(C)Cc1cccc(F)c1
- AC50 (Paired box protein Pax-8): 3.4 µM (active)
- AC50 [13]: 29.1 µM (active)
- AC50 [12]: 25.8 µM (active)

SMILES: COc1ccc(NS(=O)(=O)c2cccc(C(=O)N/N=C/c3c(F)c(F)c(F)c(F)c3F)c2)cc1
- IC50 [7]: 10.7 µM (active)

SMILES: c1ccc(-c2noc(CSc3nnnn3C3CCCCC3)n2)cc1
- AC50 (Cytochrome P450 2D6): 17.8 µM (inconclusive)
- AC50 (Cytochrome P450 3A4): inconclusive

SMILES: Nc1cc(C(=O)OCC(=O)c2ccc(CC(=O)N3CCOCC3)s2)ccc1Cl
- IC50 [7]: 5.84 µM (active)

SMILES: NNC(=O)c1ccc(N2CCc3ccccc32)c([N+](=O)[O-])c1
- EC50 [14]: > 195 µM (not active)
- CC50 [2]: > 40 µM (active)

SMILES: Cc1cccc(C(=O)N2CCC(c3nc(-c4ccc(S(=O)(=O)N5CCOCC5)cc4)no3)CC2)c1
- AC50 (Cytochrome P450 2C19): 15.8 µM (inconclusive)
- AC50 (Cytochrome P450 2D6): 0.00316 µM (inconclusive)
- AC50 (Cytochrome P450 2C9): 39.8 µM (inconclusive)
- AC50 (Cytochrome P450 3A4): inconclusive
